In ChEMBL document CHEMBL3046898, “Synthesis and characterization of flurbiprofen hydrazide derivatives as potential anti-HCV, anticancer and antimicrobial agents” (2013):
The source made the active and inactive calls. No cut-off for these calls is given here.

Tests used:
Candida parapsilosis = test: Antifungal activity against Candida parapsilosis at 10 mg/ml after 48 hrs by disc diffusion method; type: functional, organism-based
Hepacivirus hominis = test: Inhibition of HCV N-terminal His-tagged NS5B RNA dependent RNA polymerase expressed in Escherichia coli DH5alpha using poly rA/U12 as primer at 200 uM after 60 mins by liquid scintillation counting
[1] = tested on: Acinetobacter radioresistens; test: Antibacterial activity against Acinetobacter radioresistens at 6.25 to 200 ug/ml after 24 hrs by microwell dilution method; type: functional, organism-based
Proteus vulgaris [2] = test: Antibacterial activity against Proteus vulgaris at 6.25 to 200 ug/ml after 24 hrs by microwell dilution method; type: functional, organism-based
Micrococcus lylae [3] = test: Antibacterial activity against Micrococcus lylae at 6.25 to 200 ug/ml after 24 hrs by microwell dilution method; type: functional, organism-based
Pseudomonas aeruginosa [4] = test: Antibacterial activity against Pseudomonas aeruginosa at 6.25 to 200 ug/ml after 24 hrs by microwell dilution method; type: functional, organism-based
Micrococcus lylae [5] = test: Antibacterial activity against Micrococcus lylae at 10 mg/ml after 24 hrs by disc diffusion method; type: functional, organism-based
Salmonella paratyphi [6] = test: Antibacterial activity against Salmonella paratyphi at 10 mg/ml after 24 hrs by disc diffusion method; type: functional, organism-based; conditions: Salmonella enterica subsp. enterica serovar Paratyphi A
Staphylococcus cohnii [7] = test: Antibacterial activity against Staphylococcus cohnii at 6.25 to 200 ug/ml after 24 hrs by microwell dilution assay; type: functional, organism-based
Staphylococcus aureus [8] = test: Antibacterial activity against Staphylococcus aureus at 6.25 to 200 ug/ml after 24 hrs by microwell dilution assay; type: functional, organism-based
[9] = tested on: Acinetobacter radioresistens; test: Antibacterial activity against Acinetobacter radioresistens at 10 mg/ml after 24 hrs by disc diffusion method; type: functional, organism-based
Nakaseomyces glabratus = test: Antifungal activity against Candida glabrata at 10 mg/ml after 48 hrs by disc diffusion method; type: functional, organism-based
Aspergillus = test: Antifungal activity against Aspergillus at 10 mg/ml after 72 hrs by disc diffusion method; type: functional, organism-based
Candida albicans = test: Antifungal activity against Candida albicans at 10 mg/ml after 48 hrs by disc diffusion method; type: functional, organism-based
Klebsiella aerogenes [10] = test: Antibacterial activity against Enterobacter aerogenes at 6.25 to 200 ug/ml after 24 hrs by microwell dilution method; type: functional, organism-based
[11] = tested on: Schwanniomyces occidentalis; test: Antifungal activity against Schwanniomyces occidentalis at 10 mg/ml after 48 hrs by disc diffusion method; type: functional, organism-based
Escherichia coli [12] = test: Antibacterial activity against Escherichia coli at 6.25 to 200 ug/ml after 24 hrs by microwell dilution method; type: functional, organism-based
Micrococcus luteus [13] = test: Antibacterial activity against Micrococcus luteus at 10 mg/ml after 24 hrs by disc diffusion method; type: functional, organism-based
Micrococcus luteus [14] = test: Antibacterial activity against Micrococcus luteus at 6.25 to 200 ug/ml after 24 hrs by microwell dilution method; type: functional, organism-based
Photorhabdus luminescens [15] = test: Antibacterial activity against Photorhabdus luminescens at 10 mg/ml after 24 hrs by disc diffusion method; type: functional, organism-based
Kluyveromyces marxianus = test: Antifungal activity against Kluyveromyces marxianus at 10 mg/ml after 48 hrs by disc diffusion method; type: functional, organism-based
Proteus vulgaris [16] = test: Antibacterial activity against Proteus vulgaris at 10 mg/ml after 24 hrs by disc diffusion method; type: functional, organism-based
Candida tropicalis = test: Antifungal activity against Candida tropicalis at 10 mg/ml after 48 hrs by disc diffusion method; type: functional, organism-based
Staphylococcus aureus [17] = test: Antibacterial activity against Staphylococcus aureus at 10 mg/ml after 24 hrs by disc diffusion method; type: functional
Salmonella paratyphi [18] = test: Antibacterial activity against Salmonella paratyphi at 6.25 to 200 ug/ml after 24 hrs by microwell dilution method; type: functional, organism-based; conditions: Salmonella enterica subsp. enterica serovar Paratyphi A
Escherichia coli [19] = test: Antibacterial activity against Escherichia coli at 10 mg/ml after 24 hrs by disc diffusion method; type: functional, organism-based
Staphylococcus cohnii [20] = test: Antibacterial activity against Staphylococcus cohnii at 10 mg/ml after 24 hrs by disc diffusion method; type: functional
Photorhabdus luminescens [21] = test: Antibacterial activity against Photorhabdus luminescens at 6.25 to 200 ug/ml after 24 hrs by microwell dilution method; type: functional, organism-based
Klebsiella aerogenes [22] = test: Antibacterial activity against Enterobacter aerogenes at 10 mg/ml after 24 hrs by disc diffusion method; type: functional, organism-based
Pseudomonas aeruginosa [23] = test: Antibacterial activity against Pseudomonas aeruginosa at 10 mg/ml after 24 hrs by disc diffusion method; type: functional, organism-based
Pichia membranifaciens = test: Antifungal activity against Pichia membranifaciens at 10 mg/ml after 48 hrs by disc diffusion method; type: functional, organism-based

CC(C(=O)N/N=C1\SCC(=O)N1Cc1ccccc1)c1ccc(-c2ccccc2)c(F)c1 (stereo not given)
Activity (Candida parapsilosis): inactive
inhibition (Hepacivirus hominis): 8%
Activity [1]: inactive
Activity (Proteus vulgaris [2]): inactive
Activity (Micrococcus lylae [3]): inactive
Activity (Pseudomonas aeruginosa [4]): inactive
Activity (Micrococcus lylae [5]): inactive
Activity (Salmonella paratyphi [6]): inactive
Activity (Staphylococcus cohnii [7]): inactive
Activity (Staphylococcus aureus [8]): inactive
Activity [9]: inactive
Activity (Nakaseomyces glabratus): inactive
Activity (Aspergillus): inactive
Activity (Candida albicans): inactive
Activity (Klebsiella aerogenes [10]): inactive
Activity [11]: inactive
Activity (Escherichia coli [12]): inactive
Activity (Micrococcus luteus [13]): inactive
Activity (Micrococcus luteus [14]): inactive
Activity (Photorhabdus luminescens [15]): inactive
Activity (Kluyveromyces marxianus): inactive
Activity (Proteus vulgaris [16]): inactive
Activity (Candida tropicalis): inactive
Activity (Staphylococcus aureus [17]): inactive
Activity (Salmonella paratyphi [18]): inactive
Activity (Escherichia coli [19]): inactive
Activity (Staphylococcus cohnii [20]): inactive
Activity (Photorhabdus luminescens [21]): inactive
Activity (Klebsiella aerogenes [22]): inactive
Activity (Pseudomonas aeruginosa [23]): inactive
Activity (Pichia membranifaciens): inactive

CC(C(=O)N/N=C/c1ccccc1Cl)c1ccc(-c2ccccc2)c(F)c1 (stereo not given)
Activity (Candida parapsilosis): inactive
inhibition (Hepacivirus hominis): 8%
Activity [1]: inactive
Activity (Proteus vulgaris [2]): inactive
Activity (Micrococcus lylae [3]): inactive
Activity (Pseudomonas aeruginosa [4]): inactive
Activity (Micrococcus lylae [5]): inactive
Activity (Salmonella paratyphi [6]): inactive
Activity (Staphylococcus cohnii [7]): inactive
Activity (Staphylococcus aureus [8]): inactive
Activity [9]: inactive
Activity (Nakaseomyces glabratus): inactive
Activity (Aspergillus): inactive
Activity (Candida albicans): inactive
Activity (Klebsiella aerogenes [10]): inactive
Activity [11]: inactive
Activity (Escherichia coli [12]): inactive
Activity (Micrococcus luteus [13]): inactive
Activity (Micrococcus luteus [14]): inactive
Activity (Photorhabdus luminescens [15]): inactive
Activity (Kluyveromyces marxianus): inactive
Activity (Proteus vulgaris [16]): inactive
Activity (Candida tropicalis): inactive
Activity (Staphylococcus aureus [17]): inactive
Activity (Salmonella paratyphi [18]): inactive
Activity (Escherichia coli [19]): inactive
Activity (Staphylococcus cohnii [20]): inactive
Activity (Photorhabdus luminescens [21]): inactive
Activity (Klebsiella aerogenes [22]): inactive
Activity (Pseudomonas aeruginosa [23]): inactive
Activity (Pichia membranifaciens): inactive

CC(C(=O)N/N=C1\SCC(=O)N1C)c1ccc(-c2ccccc2)c(F)c1 (stereo not given)
Activity (Candida parapsilosis): inactive
inhibition (Hepacivirus hominis): 8%
Activity [1]: inactive
Activity (Proteus vulgaris [2]): inactive
Activity (Micrococcus lylae [3]): inactive
Activity (Pseudomonas aeruginosa [4]): inactive
Activity (Micrococcus lylae [5]): inactive
Activity (Salmonella paratyphi [6]): inactive
Activity (Staphylococcus cohnii [7]): inactive
Activity (Staphylococcus aureus [8]): inactive
Activity [9]: inactive
Activity (Nakaseomyces glabratus): inactive
Activity (Aspergillus): inactive
Activity (Candida albicans): inactive
Activity (Klebsiella aerogenes [10]): inactive
Activity [11]: inactive
Activity (Escherichia coli [12]): inactive
Activity (Micrococcus luteus [13]): inactive
Activity (Micrococcus luteus [14]): inactive
Activity (Photorhabdus luminescens [15]): inactive
Activity (Kluyveromyces marxianus): inactive
Activity (Proteus vulgaris [16]): inactive
Activity (Candida tropicalis): inactive
Activity (Staphylococcus aureus [17]): inactive
Activity (Salmonella paratyphi [18]): inactive
Activity (Escherichia coli [19]): inactive
Activity (Staphylococcus cohnii [20]): inactive
Activity (Photorhabdus luminescens [21]): inactive
Activity (Klebsiella aerogenes [22]): inactive
Activity (Pseudomonas aeruginosa [23]): inactive
Activity (Pichia membranifaciens): inactive

CNC(=S)NNC(=O)C(C)c1ccc(-c2ccccc2)c(F)c1 (stereo not given)
Activity (Candida parapsilosis): inactive
inhibition (Hepacivirus hominis): 8%
Activity [1]: inactive
Activity (Proteus vulgaris [2]): inactive
Activity (Micrococcus lylae [3]): inactive
Activity (Pseudomonas aeruginosa [4]): inactive
Activity (Micrococcus lylae [5]): inactive
Activity (Salmonella paratyphi [6]): inactive
Activity (Staphylococcus cohnii [7]): inactive
Activity (Staphylococcus aureus [8]): inactive
Activity [9]: inactive
Activity (Nakaseomyces glabratus): inactive
Activity (Aspergillus): inactive
Activity (Candida albicans): inactive
Activity (Klebsiella aerogenes [10]): inactive
Activity [11]: inactive
Activity (Escherichia coli [12]): inactive
Activity (Micrococcus luteus [13]): inactive
Activity (Micrococcus luteus [14]): inactive
Activity (Photorhabdus luminescens [15]): inactive
Activity (Kluyveromyces marxianus): inactive
Activity (Proteus vulgaris [16]): inactive
Activity (Candida tropicalis): inactive
Activity (Staphylococcus aureus [17]): inactive
Activity (Salmonella paratyphi [18]): inactive
Activity (Escherichia coli [19]): inactive
Activity (Staphylococcus cohnii [20]): inactive
Activity (Photorhabdus luminescens [21]): inactive
Activity (Klebsiella aerogenes [22]): inactive
Activity (Pseudomonas aeruginosa [23]): inactive
Activity (Pichia membranifaciens): inactive

CC(C(=O)NNC(=S)NCc1ccccc1)c1ccc(-c2ccccc2)c(F)c1 (stereo not given)
Activity (Candida parapsilosis): inactive
inhibition (Hepacivirus hominis): 8%
Activity [1]: inactive
Activity (Proteus vulgaris [2]): inactive
Activity (Micrococcus lylae [3]): inactive
Activity (Pseudomonas aeruginosa [4]): inactive
Activity (Micrococcus lylae [5]): inactive
Activity (Salmonella paratyphi [6]): inactive
Activity (Staphylococcus cohnii [7]): inactive
Activity (Staphylococcus aureus [8]): inactive
Activity [9]: inactive
Activity (Nakaseomyces glabratus): inactive
Activity (Aspergillus): inactive
Activity (Candida albicans): inactive
Activity (Klebsiella aerogenes [10]): inactive
Activity [11]: inactive
Activity (Escherichia coli [12]): inactive
Activity (Micrococcus luteus [13]): inactive
Activity (Micrococcus luteus [14]): inactive
Activity (Photorhabdus luminescens [15]): inactive
Activity (Kluyveromyces marxianus): inactive
Activity (Proteus vulgaris [16]): inactive
Activity (Candida tropicalis): inactive
Activity (Staphylococcus aureus [17]): inactive
Activity (Salmonella paratyphi [18]): inactive
Activity (Escherichia coli [19]): inactive
Activity (Staphylococcus cohnii [20]): inactive
Activity (Photorhabdus luminescens [21]): inactive
Activity (Klebsiella aerogenes [22]): inactive
Activity (Pseudomonas aeruginosa [23]): inactive
Activity (Pichia membranifaciens): inactive
